Measured values from paper PMC6403800 (Polymers, 2018).
Where two headings read alike, the source gives them in different places. Peptide text beside a SMILES is read from it.

Experiments:
[1] = molecular target: T1, α-hemolysin (α-HL) nanopore (Staphylococcus aureus, UniProt P09616); test: biochemical; format: binding; conditions: for kon: extrapolated to ΔV→0 by fit kon(ΔV)=kon(0)exp(aΔV)
[2] = molecular target: T1, α-hemolysin (α-HL) nanopore

T1 sequence (P09616 27-319 limits assumed): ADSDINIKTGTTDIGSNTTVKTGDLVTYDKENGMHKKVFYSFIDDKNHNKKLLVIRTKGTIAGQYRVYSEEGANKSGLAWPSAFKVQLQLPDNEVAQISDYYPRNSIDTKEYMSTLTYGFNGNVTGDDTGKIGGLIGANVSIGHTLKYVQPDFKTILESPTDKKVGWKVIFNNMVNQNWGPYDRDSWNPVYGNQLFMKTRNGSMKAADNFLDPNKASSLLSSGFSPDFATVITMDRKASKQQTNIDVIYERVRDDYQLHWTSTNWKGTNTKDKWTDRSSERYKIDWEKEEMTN

Compound	dissociation rate, cis vs trans entry with preserved axial orientation, in words ([1]; at +ΔV (Figure 7a,d) and at −ΔV (Figure 7b,c), 30 μM)	dissociation, comparison of polarity in words ([1]; cis-added, +ΔV vs −ΔV (Figure 7c,d), 30 μM)	association rates trans vs cis side, in words ([1]; high voltages (|ΔV| > 100 mV), 30 μM)	association rate kon, ranking by addition side and voltage polarity ([1]; high voltages (|ΔV| > 100 mV), 30 μM peptide, cis or trans addition)	kon ([1]; pH 7, read-out: near equilibrium association rate constant kon(0), cis-added, +ΔV, 30 μM peptide, 2 M KCl, 10 mM HEPES, pH 7, ~23 °C)	kon ([1]; pH 7, read-out: near equilibrium association rate constant kon(0), cis-added, −ΔV, 30 μM peptide, 2 M KCl, 10 mM HEPES, pH 7, ~23 °C)	kon ([1]; pH 7, read-out: near equilibrium association rate constant kon(0), trans-added, +ΔV, 30 μM peptide, 2 M KCl, 10 mM HEPES, pH 7, ~23 °C)	kon ([1]; pH 7, read-out: near equilibrium association rate constant kon(0), trans-added, −ΔV, 30 μM peptide, 2 M KCl, 10 mM HEPES, pH 7, ~23 °C)	dissociation rate constant koff, comparison of polarity in words ([1]; trans-added, +ΔV vs −ΔV (Figure 7a,b), 30 μM)	association rate constant kon, comparison in words ([1]; trans-added, Pe6 vs Pe4, voltage-dependent (Figure 4a,c), 2 M KCl, 10 mM HEPES, pH 7, ~23 °C)	trapping time inside α-HL, comparison in words ([1]; trans-added, as the positive voltage increases (+80, +90, +100 mV), Pe6 vs Pe4, 2 M KCl, pH 7)	association rate, comparison of polarity in words ([1]; trans-added, relatively low transmembrane potential values (Figure 6a,b insets), 30 μM)	near equilibrium kon(0), ranking by addition side and voltage polarity ([1]; ΔV→0, cis or trans addition, 30 μM peptide)	relative blockade extent ΔIblock,1/Iopen (residual current I1) ([2]; deeper blockade sub-state I1, Fig. 1: 20 µM trans-added, ΔV = +100 mV, 2 M KCl, 10 mM HEPES, pH 7, ~23 °C, kind of spread not stated)	relative blockade extent ΔIblock,2/Iopen (residual current I2) ([2]; shallower blockade sub-state I2, Fig. 1: 20 µM trans-added, ΔV = +100 mV, 2 M KCl, 10 mM HEPES, pH 7, ~23 °C, kind of spread not stated)	dissociation rate constant koff, comparison in words ([1]; pH 7)	relative blockade extent ΔIblock,1/Iopen, comparison in words [2]	relative blockade extent ΔIblock,1/Iopen (residual current I1) ([2]; pH 7)	relative blockade extent ΔIblock,2/Iopen (residual current I2) ([2]; pH 7)
CC(=O)N[C@@H](CCCNC(=N)N)C(=O)N[C@@H](CCCNC(=N)N)C(=O)N[C@@H](CCCNC(=N)N)C(=O)N[C@@H](CCCNC(=N)N)C(=O)N[C@@H](CCCNC(=N)N)C(=O)N[C@@H](CCCNC(=N)N)C(=O)N[C@@H](CCCNC(=N)N)C(=O)N[C@@H](CCCNC(=N)N)C(=O)N[C@@H](CCCNC(=N)N)C(=O)N[C@@H](CCCNC(=N)N)C(=O)N[C@@H](CCCNC(=N)N)C(=O)N[C@@H](CCCNC(=N)N)C(=O)N[C@@H](CO)C(=O)N[C@@H](CO)C(=O)N[C@@H](CO)C(=O)N[C@@H](CO)C(=O)N[C@@H](CO)C(=O)N[C@@H](CO)C(=O)N[C@@H](CCC(=O)O)C(=O)N[C@@H](CCC(=O)O)C(=O)N[C@@H](CCC(=O)O)C(=O)N[C@@H](CCC(=O)O)C(=O)N[C@@H](CCC(=O)O)C(=O)N[C@@H](CCC(=O)O)C(=O)N[C@@H](CCC(=O)O)C(=O)N[C@@H](CCC(=O)O)C(=O)N[C@@H](CCC(=O)O)C(=O)N[C@@H](CCC(=O)O)C(=O)N[C@@H](CCC(=O)O)C(=O)N[C@@H](CCC(=O)O)C(N)=O [Pe6, Ac–(R)12–(S)6–(E)12–NH2] (Ac-RRRRRRRRRRRRSSSSSSEEEEEEEEEEEE-NH2)	within the same order of magnitude	dissociates faster at +ΔVs (Figure 7d) than −ΔVs	the association rates from the trans side are, in general, larger than peptide association from the cis side	koncis;−ΔV<koncis;+ΔV<kontrans;+ΔV<kontrans;−ΔV	63 ± 35.1 M⁻¹ s⁻¹	26.1 ± 8.9 M⁻¹ s⁻¹	83500 M⁻¹ s⁻¹	1200 M⁻¹ s⁻¹	larger at +ΔVs than at −ΔVs	almost one order of magnitude larger than that of the isoleucine-containing peptide (Pe4)	being trapped longer than Pe4 peptide inside the α-HL, as the voltage increases	associate faster to the nanopore at +ΔVs (Figure 6a, inset) than −ΔV s	koncis;−ΔV(0)<koncis;+ΔV(0)<kontrans;−ΔV(0)<kontrans;+ΔV(0)	0.91 ± 0.003	0.83 ± 0.002	–	–	–	–
Ac–(R)12–(I)6–(E)12–NH2 [Pe4]	–	–	–	–	–	–	–	–	–	–	–	–	–	–	–	slightly faster dissociation step	slightly higher extent of relative blockade	0.93 ± 5.1 × 10^−4	0.83 ± 0.004
